From ChEMBL document CHEMBL3784916, “Synthesis and anticancer activity of novel fluorinated asiatic acid derivatives” (Eur J Med Chem, 2016)

Key:
HT-29 = assay: Cytotoxicity against human HT-29 cells after 72 hrs by MTT assay; format: functional, cell-based; settings: HT-29, 72 h
HeLa = assay: Cytotoxicity against human HeLa cells after 72 hrs by MTT assay; format: functional, cell-based
Jurkat = assay: Cytotoxicity against human Jurkat cells after 72 hrs by XTT assay; format: functional, cell-based
PC-3 = assay: Cytotoxicity against human PC3 cells after 72 hrs by MTT assay; format: functional, cell-based
MCF7 = assay: Cytotoxicity against human MCF7 cells after 72 hrs by MTT assay; format: functional, cell-based
MIA PaCa-2 = assay: Cytotoxicity against human MIAPaCa2 cells after 72 hrs by MTT assay; format: functional, cell-based
A-375 = assay: Cytotoxicity against human A375 cells after 72 hrs by MTT assay; format: functional, cell-based
BJ = assay: Cytotoxicity against human BJ cells after 72 hrs by MTT assay; format: cell-based; settings: human, bj

SMILES | IC50 (HT-29) [µM] | IC50 (HeLa) [µM] | Activity (Jurkat) | Activity (PC-3) | Activity (MCF7) | Activity (MIA PaCa-2) | Activity (A-375) | Activity (BJ)
C[C@H]1[C@H](C)CC[C@@]23CC[C@]4(C)[C@](OC2=O)([C@H](F)C[C@@H]2[C@@]5(C)C(C=O)=C[C@@](C)(CO)[C@@H]5CC[C@]24C)[C@H]13 | 1.28 | 1.08 | Dose-dependent effect | Dose-dependent effect | Dose-dependent effect | Dose-dependent effect | Dose-dependent effect | Dose-dependent effect
COC(=O)[C@H](C)N1C(=O)[C@]23CC[C@@H](C)[C@H](C)[C@H]2[C@]12[C@H](F)C[C@@H]1[C@@]4(C)C[C@@H](OC(C)=O)[C@H](OC(C)=O)[C@@](C)(COC(C)=O)[C@@H]4CC[C@@]1(C)[C@]2(C)CC3 | 6.37 | 3.97 | Dose-dependent effect | Dose-dependent effect | Dose-dependent effect | Dose-dependent effect | Dose-dependent effect | Dose-dependent effect
C[C@H]1[C@H](C)CC[C@@]23CC[C@]4(C)[C@](OC2=O)([C@H](F)C[C@@H]2[C@@]5(C)C[C@@H](O)[C@H](O)[C@@](C)(CO)[C@@H]5CC[C@]24C)[C@H]13 | 51.2 | 60.2 | Dose-dependent effect | Dose-dependent effect | Dose-dependent effect | Dose-dependent effect | Dose-dependent effect | Dose-dependent effect
CCCC(=O)OC[C@@]1(C)[C@@H]2CC[C@]3(C)[C@H](C[C@@H](F)[C@]45OC(=O)[C@@]6(CC[C@@H](C)[C@H](C)[C@H]64)CC[C@]53C)[C@@]2(C)C[C@@H](OC(=O)CCC)[C@@H]1OC(=O)CCC | 7.4 | 5.05 | Dose-dependent effect | Dose-dependent effect | Dose-dependent effect | Dose-dependent effect | Dose-dependent effect | Dose-dependent effect
CC(=O)OC[C@@]1(C)[C@@H]2CC[C@]3(C)[C@H](C[C@@H](F)[C@]45OC(=O)[C@@]6(CC[C@@H](C)[C@H](C)[C@H]64)CC[C@]53C)[C@@]2(C)CC(=O)[C@@H]1OC(C)=O | – | 11.7 | Dose-dependent effect | Dose-dependent effect | Dose-dependent effect | Dose-dependent effect | Dose-dependent effect | Dose-dependent effect
COC(=O)[C@H](C)NC(=O)[C@]12CC[C@@H](C)[C@H](C)[C@H]1C1=CC[C@@H]3[C@@]4(C)C[C@@H](OC(C)=O)[C@H](OC(C)=O)[C@@](C)(COC(C)=O)[C@@H]4CC[C@@]3(C)[C@]1(C)CC2 | – | 1.07 | Dose-dependent effect | Dose-dependent effect | Dose-dependent effect | Dose-dependent effect | Dose-dependent effect | Dose-dependent effect
CC(=O)OC[C@@]1(C)[C@@H]2CC[C@]3(C)[C@H](CC=C4[C@@H]5[C@@H](C)[C@H](C)CC[C@]5(C(N)=O)CC[C@]43C)[C@@]2(C)C[C@@H](OC(C)=O)[C@@H]1OC(C)=O | – | 1.65 | Dose-dependent effect | Dose-dependent effect | Dose-dependent effect | Dose-dependent effect | Dose-dependent effect | Dose-dependent effect
CNC(=O)[C@]12CC[C@@H](C)[C@H](C)[C@H]1C1=CC[C@@H]3[C@@]4(C)C[C@@H](OC(C)=O)[C@H](OC(C)=O)[C@@](C)(COC(C)=O)[C@@H]4CC[C@@]3(C)[C@]1(C)CC2 | – | 1.1 | Dose-dependent effect | Dose-dependent effect | Dose-dependent effect | Dose-dependent effect | Dose-dependent effect | Dose-dependent effect
CC(=O)OC[C@@]1(C)[C@@H]2CC[C@]3(C)[C@H](C[C@@H](F)[C@]45[C@@H]6[C@@H](C)[C@H](C)CC[C@@]6(CC[C@]43C)C(=O)N5C)[C@@]2(C)C[C@@H](OC(C)=O)[C@@H]1OC(C)=O | 8.5 | 2.95 | Dose-dependent effect | Dose-dependent effect | Dose-dependent effect | Dose-dependent effect | Dose-dependent effect | Dose-dependent effect
C[C@H]1[C@H](C)CC[C@@]23CC[C@]4(C)[C@](OC2=O)([C@H](F)C[C@@H]2[C@@]5(C)C(C=O)=C[C@@](C)(COC(=O)n6ccnc6)[C@@H]5CC[C@]24C)[C@H]13 | 2.37 | 1.62 | Dose-dependent effect | Dose-dependent effect | Dose-dependent effect | Dose-dependent effect | Dose-dependent effect | Dose-dependent effect
COC(=O)CN1C(=O)[C@]23CC[C@@H](C)[C@H](C)[C@H]2[C@]12[C@H](F)C[C@@H]1[C@@]4(C)C[C@@H](OC(C)=O)[C@H](OC(C)=O)[C@@](C)(COC(C)=O)[C@@H]4CC[C@@]1(C)[C@]2(C)CC3 | 9.23 | 2.72 | Dose-dependent effect | Dose-dependent effect | Dose-dependent effect | Dose-dependent effect | Dose-dependent effect | Dose-dependent effect
CC(=O)OC[C@]1(C)C=C(C=O)[C@@]2(C)[C@H]1CC[C@]1(C)[C@@H]2C[C@@H](F)[C@]23OC(=O)[C@@]4(CC[C@@H](C)[C@H](C)[C@H]42)CC[C@]31C | 2.02 | 1.4 | Dose-dependent effect | Dose-dependent effect | Dose-dependent effect | Dose-dependent effect | Dose-dependent effect | Dose-dependent effect
CC(=O)OC[C@@]1(C)[C@@H]2CC[C@]3(C)[C@H](CC=C4[C@@H]5[C@@H](C)[C@H](C)CC[C@]5(C(=O)O)CC[C@]43C)[C@@]2(C)C[C@@H](OC(C)=O)[C@@H]1OC(C)=O | – | 6.1 | Dose-dependent effect | Dose-dependent effect | Dose-dependent effect | Dose-dependent effect | Dose-dependent effect | Dose-dependent effect
CC(=O)OC[C@@]1(C)[C@@H]2CC[C@]3(C)[C@H](C[C@@H](F)[C@]45OC(=O)[C@@]6(CC[C@@H](C)[C@H](C)[C@H]64)CC[C@]53C)[C@@]2(C)C[C@@H](OC(C)=O)[C@@H]1OC(C)=O | 6.38 | 4.43 | Dose-dependent effect | Dose-dependent effect | Dose-dependent effect | Dose-dependent effect | Dose-dependent effect | Dose-dependent effect
Cc1nccn1C(=O)OC[C@]1(C)C=C(C=O)[C@@]2(C)[C@H]1CC[C@]1(C)[C@@H]2C[C@@H](F)[C@]23OC(=O)[C@@]4(CC[C@@H](C)[C@H](C)[C@H]42)CC[C@]31C | 2.8 | 1.63 | Dose-dependent effect | Dose-dependent effect | Dose-dependent effect | Dose-dependent effect | Dose-dependent effect | Dose-dependent effect
C[C@H]1[C@H](C)CC[C@@]23CC[C@]4(C)[C@](OC2=O)([C@H](F)C[C@@H]2[C@@]5(C)CC(=O)[C@H](O)[C@@](C)(CO)[C@@H]5CC[C@]24C)[C@H]13 | 23.5 | 24.5 | Dose-dependent effect | Dose-dependent effect | Dose-dependent effect | Dose-dependent effect | Dose-dependent effect | Dose-dependent effect
C[C@H]1[C@H](C)CC[C@@]23CC[C@]4(C)[C@](OC2=O)([C@H](F)C[C@@H]2[C@@]5(C)C(C#N)=C[C@@](C)(CO)[C@@H]5CC[C@]24C)[C@H]13 | – | 7.5 | Dose-dependent effect | Dose-dependent effect | Dose-dependent effect | Dose-dependent effect | Dose-dependent effect | Dose-dependent effect
C[C@H]1[C@H](C)CC[C@@]23CC[C@]4(C)[C@](OC2=O)([C@H](F)C[C@@H]2[C@@]5(C)C[C@@H](O)OC[C@](C)(C=O)[C@@H]5CC[C@]24C)[C@H]13 | 11.2 | 7.4 | Dose-dependent effect | Dose-dependent effect | Dose-dependent effect | Dose-dependent effect | Dose-dependent effect | Dose-dependent effect
COC(=O)CNC(=O)[C@]12CC[C@@H](C)[C@H](C)[C@H]1C1=CC[C@@H]3[C@@]4(C)C[C@@H](OC(C)=O)[C@H](OC(C)=O)[C@@](C)(COC(C)=O)[C@@H]4CC[C@@]3(C)[C@]1(C)CC2 | – | 0.98 | Dose-dependent effect | Dose-dependent effect | Dose-dependent effect | Dose-dependent effect | Dose-dependent effect | Dose-dependent effect
